# Measured values as given in patent US9796700B2 (Celgene CAR LLC, priority 2013, dated 2017).
# Columns and labels:
# Erk1 = Erk1 (Homo sapiens (Human), UniProt P27361); assay: Protein Mass Modification Assay (intact protein MALDI); type: binding
# Outline: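 Percent covalent modification comes from the intact-protein MALDI centroid mass shift, treated versus control, divided by compound MW. Before analysis, human Erk1 was exposed to compound at 10-fold excess over protein for 60 min at room temperature.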
# MEK1 activated ERK1 = MEK1 activated ERK1 (Homo sapiens (Human), UniProt P27361); assay: Omnia continuous-read kinase assay for potency against MEK1 activated ERK1; type: biochemical; details: MEK1 activated ERK1, WT, ATP at KM
# From the text: Omnia Assay Protocol for Potency Assessment Against MEK1 Activated ERK1:
# The protocol below describes continuous-read kinase assays to measure potency of compounds against activated ERK1 enzyme. The mechanics of the assay platform are best described by the vendor (Invitrogen, Carlsbad, Calif.) on their website at the following URL: invitrogen.com/site/us/en/home.html.
# Briefly, a 1.25× stock of ERK1 enzyme (14-439-K) from Millipore (Billerica, Mass.), 5×ATP (AS001A) and ST17-Sox conjugated peptide substrate (KNZ1171C) were prepared in 1× kinase reaction buffer consisting of 20 mM Tris, pH 7.5, 5 mM MgCl2, 1 mM EGTA, 5 mM β-glycerophosphate, 5% glycerol (10× stock, KB002A) and 0.2 mM DTT. 10 μL of ATP/ST17-sox peptide substrate mix was combined with 0.5 μL volume of 100% DMSO and serially diluted compounds were prepared in 100% DMSO in a Corning (#3574) 384-well, white, non-binding surface microtiter plate (Corning, N.Y.). Kinase reactions were started with the addition of 40 μL of ERK1 solution and monitored every 71 seconds for 30-240 minutes at λex360/λem485 in a Synergy plate reader from BioTek (Winooski, Vt.). At the conclusion of each assay, progress curves from each well were examined for linear reaction kinetics and fit statistics (R^2, 95% confidence interval, absolute sum of squares). Initial velocity (0 minutes to ˜30+ minutes) from each reaction was determined from the slope of a plot of relative fluorescence units vs time (minutes or seconds) and then plotted against inhibitor concentration to estimate ^AppIC50 from log [Inhibitor] vs Response, Variable Slope model in GraphPad Prism from GraphPad Software (San Diego, Calif.).
# [Reagent] used in optimized protocol:
# [ERK1]=4 nM, [ATP]=50 μM, [ST17-Sox]=10 μM (ATP ^appKM 48 μM)
# The results of this assay show the degree of inhibition of ERK activity, which is a direct measurement of inhibition of ERK activity. Results from this assay are reported in Table A under the column “ERK1 Omnia WT ATP KM IC50 (nM).”
# Erk1, sequence (P27361 whole entry, looked up): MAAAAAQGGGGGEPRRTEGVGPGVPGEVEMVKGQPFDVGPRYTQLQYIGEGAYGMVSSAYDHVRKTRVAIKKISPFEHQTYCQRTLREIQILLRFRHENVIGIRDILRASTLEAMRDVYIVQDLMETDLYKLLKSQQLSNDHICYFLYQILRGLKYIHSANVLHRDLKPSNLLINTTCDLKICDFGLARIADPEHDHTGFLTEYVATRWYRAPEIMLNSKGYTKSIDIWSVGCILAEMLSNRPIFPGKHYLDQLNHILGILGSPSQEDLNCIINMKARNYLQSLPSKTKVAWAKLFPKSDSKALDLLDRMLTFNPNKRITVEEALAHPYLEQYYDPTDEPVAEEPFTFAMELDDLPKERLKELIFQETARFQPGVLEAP
# MEK1 activated ERK1, sequence (P27361 whole entry): as the sequence (P27361 whole entry, looked up) above
ERK1 Mass Mod (%) (Erk1),IC50 (MEK1 activated ERK1) [nM],SMILES
G (proived a mass modification ≦30%),> 1000,"C=CC(=O)N[C@H]1CCCC1Nc1nc(N[C@H]2CCCN(C(C)=O)C2)ncc1C(F)(F)F (stereo in doubt) [Compound I-24, N-((1S,2S)-2-((2-(((S)-1-Acetylpiperidin-3-yl)amino)-5-(trifluoromethyl)pyrimidin-4-yl)amino)cyclopentyl)acrylamide]"
E (provided a mass modification of ≧70%),< 100,"C=CC(=O)Nc1ccccc1Nc1nc(N[C@@H]2CCC[C@H](C(N)=O)C2)ncc1C(F)(F)F [Compound I-7, (1S,3R)-3-((4-((2-acrylamidophenyl)amino)-5-(trifluoromethyl)pyrimidin-2-yl)amino)cyclohexanecarboxamide]"
E (provided a mass modification of ≧70%),< 100,"C=CC(=O)Nc1ccccc1Nc1nc(N[C@H]2CCCN(C=O)C2)ncc1C(F)(F)F [Compound I-9, (S)—N-(2-((2-((1-formylpiperidin-3-yl)amino)-5-(trifluoromethyl)pyrimidin-4-yl)amino)phenyl)acrylamide]"
E (provided a mass modification of ≧70%),< 100,"C=CC(=O)Nc1ccccc1Nc1nc(N[C@H]2CCCN(C(C)=O)C2)ncc1C(F)(F)F [Compound I-10, (S)—N-(2-(2-(1-acetylpiperidin-3-ylamino)-5-(trifluoromethyl)pyrimidin-4-ylamino)phenyl)acrylamide]"
E (provided a mass modification of ≧70%),< 100,"C=CC(=O)Nc1ccccc1Nc1nc(NC2CCN(S(C)(=O)=O)CC2)ncc1C(F)(F)F [Compound I-13, N-(2-((2-((1-(methylsulfonyl)piperidin-4-yl)amino)-5-(trifluoromethyl)pyrimidin-4-yl)amino)phenyl)acrylamide]"
,< 100,"CCC(=O)Nc1ccccc1Nc1nc(N[C@H]2CCCN(C(=O)CO)C2)ncc1Cl [Compound I-311, (S)—N-(2-((5-chloro-2-((1-(2-hydroxyacetyl)piperidin-3-yl)amino)pyrimidin-4-yl)amino)phenyl)propionamide]"
E (provided a mass modification of ≧70%),,"C=CC(=O)Nc1cc(C)ccc1Nc1nc(Nc2cc(NC3CC3)nc(OC)c2)ncc1C(F)(F)F [Compound I-337, N-(2-((2-((2-(cyclopropylamino)-6-methoxypyridin-4-yl)amino)-5-(trifluoromethyl)pyrimidin-4-yl)amino)-5-methylphenyl)acrylamide]"
E (provided a mass modification of ≧70%),,"C=CC(=O)Nc1ccccc1Nc1nc(Nc2cc(OC)cc(OC)c2)ncc1C(F)(F)F [Compound I-338, N-(2-((2-((3,5-dimethoxyphenyl)amino)-5-(trifluoromethyl)pyrimidin-4-yl)amino)phenyl)acrylamide]"
E (provided a mass modification of ≧70%),,"C=CC(=O)Nc1ccccc1Nc1nc(Nc2cc(OC)ccc2C)ncc1C(F)(F)F [Compound I-340, N-(2-((2-((5-methoxy-2-methylphenyl)amino)-5-(trifluoromethyl)pyrimidin-4-yl)amino)phenyl)acrylamide]"
E (provided a mass modification of ≧70%),,"C=CC(=O)Nc1cc(C)ccc1Nc1nc(Nc2cc(OC)ccc2C)ncc1C(F)(F)F [Compound I-341, N-(2-((2-((5-methoxy-2-methylphenyl)amino)-5-(trifluoromethyl)pyrimidin-4-yl)amino)-5-methylphenyl)acrylamide]"
E (provided a mass modification of ≧70%),,"C=CC(=O)Nc1cc(C)ccc1Nc1nc(Nc2cc(OC)nc(N(C)C3CC3)c2)ncc1C(F)(F)F [Compound I-342, N-(2-((2-((2-(cyclopropyl(methyl)amino)-6-methoxypyridin-4-yl)amino)-5-(trifluoromethyl)pyrimidin-4-yl)amino)-5-methylphenyl)acrylamide]"
E (provided a mass modification of ≧70%),,"C#CC(=O)Nc1cc(C)ccc1Nc1nc(Nc2cc(OC)ncc2C)ncc1C(F)(F)F [Compound I-345, N-(2-((2-((2-methoxy-5-methylpyridin-4-yl)amino)-5-(trifluoromethyl)pyrimidin-4-yl)amino)-5-methylphenyl)propiolamide]"
E (provided a mass modification of ≧70%),,"C=CC(=O)Nc1cc(C)ccc1Nc1nc(Nc2nc(OC)ncc2C#N)ncc1C(F)(F)F [Compound I-346, N-(2-((2-((5-cyano-2-methoxypyrimidin-4-yl)amino)-5-(trifluoromethyl)pyrimidin-4-yl)amino)-5-methylphenyl)acrylamide]"
E (provided a mass modification of ≧70%),,"C=CC(=O)Nc1cc(C)ccc1Nc1nc(Nc2nc(OC)ncc2OC)ncc1C(F)(F)F [Compound I-349, N-(2-((2-((2,5-dimethoxypyrimidin-4-yl)amino)-5-(trifluoromethyl)pyrimidin-4-yl)amino)-5-methylphenyl)acrylamide]"
E (provided a mass modification of ≧70%),,"C=CC(=O)Nc1cc(C)ccc1Nc1nc(Nc2ncc(C(F)(F)F)c(OC)n2)ncc1C(F)(F)F [Compound I-354, N-(2-((2-((4-methoxy-5-(trifluoromethyl)pyrimidin-2-yl)amino)-5-(trifluoromethyl)pyrimidin-4-yl)amino)-5-methylphenyl)acrylamide]"
E (provided a mass modification of ≧70%),,"C=CC(=O)Nc1cc(C)ccc1Nc1nc(Nc2nc(OC)ncc2F)ncc1C(F)(F)F [Compound I-357, N-(2-((2-((5-fluoro-2-methoxypyrimidin-4-yl)amino)-5-(trifluoromethyl)pyrimidin-4-yl)amino)-5-methylphenyl)acrylamide]"
E (provided a mass modification of ≧70%),,"C=CC(=O)Nc1cc(C)ccc1Nc1nc(Nc2cc(OCC)ncc2C)ncc1C(F)(F)F [Compound I-358, N-(2-((2-((2-ethoxy-5-methylpyridin-4-yl)amino)-5-(trifluoromethyl)pyrimidin-4-yl)amino)-5-methylphenyl)acrylamide]"
E (provided a mass modification of ≧70%),,"C=CC(=O)Nc1cc(C)ccc1Nc1nc(Nc2cc(OCCOC)ncc2C)ncc1C(F)(F)F [Compound I-359, N-(2-((2-((2-(2-methoxyethoxy)-5-methylpyridin-4-yl)amino)-5-(trifluoromethyl)pyrimidin-4-yl)amino)-5-methylphenyl)acrylamide]"
E (provided a mass modification of ≧70%),,"C=CC(=O)Nc1cc(C)c(F)cc1Nc1nc(Nc2cc(OC)ncc2C)ncc1C(F)(F)F [Compound I-366, N-(4-fluoro-2-((2-((2-methoxy-5-methylpyridin-4-yl)amino)-5-(trifluoromethyl)pyrimidin-4-yl)amino)-5-methylphenyl)acrylamide]"
E (provided a mass modification of ≧70%),,"C=CC(=O)Nc1c(Nc2nc(Nc3cc(OC)ncc3C)ncc2C(F)(F)F)ccc(C)c1F [Compound I-367, N-(2-fluoro-6-((2-((2-methoxy-5-methylpyridin-4-yl)amino)-5-(trifluoromethyl)pyrimidin-4-yl)amino)-3-methylphenyl)acrylamide]"

SMILES,ERK1 Mass Mod (%) (Erk1),IC50 (MEK1 activated ERK1) [nM]
"C=CC(=O)Nc1ccccc1Nc1nc(N[C@H]2CCCN(C(=O)OC)C2)ncc1C(F)(F)F [Compound I-17, (S)-Methyl 3-((4-((2-acrylamidophenyl)amino)-5-(trifluoromethyl)pyrimidin-2-yl)amino) piperidine-1-carboxylate]",F (provided a mass modification of 31-69%),< 100
"C=CC(=O)Nc1cc(C)ccc1Nc1nc(Nc2cc(P(C)(C)=O)ncc2C)ncc1C(F)(F)F [Compound I-343, N-(2-((2-((2-(dimethylphosphoryl)-5-methylpyridin-4-yl)amino)-5-(trifluoromethyl)pyrimidin-4-yl)amino)-5-methylphenyl)acrylamide]",F (provided a mass modification of 31-69%),
"C=CC(=O)Nc1cc(C)ccc1Nc1nc(Nc2cnc(OC)cc2C)ncc1C(F)(F)F [Compound I-350, N-(2-((2-((6-methoxy-4-methylpyridin-3-yl)amino)-5-(trifluoromethyl)pyrimidin-4-yl)amino)-5-methylphenyl)acrylamide]",F (provided a mass modification of 31-69%),
"C=CC(=O)Nc1cc(C)ccc1Nc1nc(Nc2cc(OC)ncc2Cl)ncc1C(F)(F)F [Compound I-351, N-(2-((2-((5-chloro-2-methoxypyridin-4-yl)amino)-5-(trifluoromethyl)pyrimidin-4-yl)amino)-5-methylphenyl)acrylamide]",F (provided a mass modification of 31-69%),
